According to PubChem BioAssay (NCI):
“And” between values parts separate entries of the source, which are not always exact repeats. Identical values can stand only once.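 Five compound concentrations were applied to cells in 96-well plates for 48 hours; endpoints were derived by simple linear interpolation of the resulting dose-response curve. GI50 = concentration required for 50% inhibition of growth. At the TGI there is no net growth.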

Columns and labels:
Experiment in all cases: inhibition of tumour cell growth, NCI panel, 48 h
HL-60(TB) leukemia = tested on: HL-60(TB) leukemia
OVCAR-4 ovarian = tested on: OVCAR-4 ovarian
RXF 393 renal = tested on: RXF 393 renal
SF-539 CNS = tested on: SF-539 CNS
SK-MEL-2 melanoma = tested on: SK-MEL-2 melanoma
SK-OV-3 ovarian = tested on: SK-OV-3 ovarian
SNB-75 CNS = tested on: SNB-75 CNS
TK-10 renal = tested on: TK-10 renal
MDA-MB-435 = tested on: MDA-MB-435
SF-295 CNS = tested on: SF-295 CNS

Structure (SMILES)	GI50 (HL-60(TB) leukemia) [µM]	TGI (HL-60(TB) leukemia)	GI50 (OVCAR-4 ovarian) [µM]	TGI (OVCAR-4 ovarian) [µM]	GI50 (RXF 393 renal)	TGI (RXF 393 renal)	GI50 (SF-539 CNS)	TGI (SF-539 CNS)	GI50 (SK-MEL-2 melanoma)	TGI (SK-MEL-2 melanoma)	GI50 (SK-OV-3 ovarian)	TGI (SK-OV-3 ovarian) [µM]	GI50 (SNB-75 CNS) [µM]	TGI (SNB-75 CNS) [µM]	GI50 (TK-10 renal) [µM]	TGI (TK-10 renal) [µM]	TGI (MDA-MB-435)	TGI (SF-295 CNS)	GI50 (MDA-MB-435) [µM]	GI50 (SF-295 CNS) [µM]
COc1cc(C(=O)/C=C/c2c[nH]c3ccccc23)cc(OC)c1OC	< 0.0145	0.0422 µM	0.684	43.1	0.0238 µM	34.7 µM	0.0184 µM	0.0965 µM	0.0392 µM	19.2 µM	0.0438 µM	31.1	0.0264	37.2	0.188	9.56				
CO[C@H]1C[C@H](O[C@H]2CC[C@@]3(C)[C@H](CC[C@@H]4[C@@H]3CC[C@]3(C)[C@@H](C5=CC(=O)OC5)CC[C@]43O)C2)O[C@H](C)[C@H]1O				< 0.0131		0.0105 µM		0.0138 µM		0.0478 µM		0.0291		0.17		0.0482	0.0974 µM	0.0555 µM		
NN=C1/C(=C\c2ccccc2)CCC/C1=C/c1ccccc1		45.1 µM		> 100		> 100 µM		> 100 µM		> 100 µM		> 100		> 100		> 100		> 100 µM		
CC1(C)C2CC(=O)C1(C)C(OCc1ccccc1)C2Br (centres undefined)		50.2 µM and 62.1 µM			20.6 µM and 82.7 µM	46.8 µM and > 100 µM	25.9 µM and > 100 µM	68.4 µM and > 100 µM	13.1 µM and > 100 µM	25.8 µM and > 100 µM	41.5 µM and > 100 µM	> 100				> 100	> 100 µM and 84.7 µM	70.9 µM and > 100 µM		
NP1(Oc2ccc(F)cc2)=NP(N)(Oc2ccc(F)cc2)=NP(Oc2ccc(F)cc2)(Oc2ccc(F)cc2)=N1 (centres undefined)		22.3 µM						27.5 µM				27.2		14.5		12.3	19.3 µM	15.4 µM		
O=C1c2c(c3c4ccccc4n(CC4CO4)c3c3[nH]c4ccccc4c23)C(=O)N1Cc1ccccc1 (centres undefined)		> 100 µM		> 100		> 100 µM		> 100 µM		> 100 µM		> 100				> 100		> 100 µM		
COc1ccc2c(Cl)cc(NC(=S)Nc3ccccc3)nc2c1				> 100		55.6 µM		> 100 µM		55 µM		61.1		52.1		> 100	34.6 µM	> 100 µM		
N/N=C1/C(=O)N(c2ccc(Cl)cc2)C(=O)C(=O)C1c1nc2ccccc2s1 (centres undefined)		> 100 µM		> 100		> 100 µM		> 100 µM		> 100 µM		> 100		> 100		> 100		> 100 µM		
CCOC(=O)C1=C(C)N(NC(=O)Nc2ccccc2)C2(N)N(NC(=O)Nc3ccccc3)C(C)=C(C(=O)OCC)C12C#N (centres undefined)				31.5		27.7 µM				30.2 µM		52.1		36.6		49.3				
CC1=Nc2ccccc2S/C1=C1/C=NC(=NC#N)N=C1C(=O)Nc1cccc(Cl)c1				> 100		> 100 µM		> 100 µM		> 100 µM		> 100		> 100		> 100		> 100 µM		
C#Cc1c(C)c(/C=C/C(C)=C\C(=O)OC)n(C)c1C		> 100 µM		> 100				> 100 µM				> 100				> 100		> 100 µM		
N#Cc1c(N)oc2cc3c(C#N)c(N)oc3cc12		> 100 µM		> 100		> 100 µM		> 100 µM		> 100 µM		> 100		> 100		> 100		> 100 µM		
CCN(CC)c1ccc(N=Nc2ccc(-c3nc4cccnc4s3)cc2)cc1		> 100 µM		> 100						> 100 µM		> 100		98.9		> 100		> 100 µM		
CC(C)(c1ccc(C=O)o1)c1ccc(C(C)(C)c2ccc(C=O)o2)o1		> 100 µM		> 100		> 100 µM		> 100 µM		> 100 µM		> 100				> 100		> 100 µM		
COc1cc(O)c(C(=O)C2Cc3ccccc32)c(OC)c1 (centres undefined)		39.7 µM		> 100		69.4 µM		> 100 µM		95 µM		> 100		> 100		> 100		> 100 µM		
Cc1nc2ccccc2c(=O)n1/N=C(\N=Nc1cc(Cl)ccc1Cl)c1ccc(N(C)C)cc1		56.5 µM				81.8 µM		> 100 µM				> 100				> 100				
O=C(O)CCCCCNCc1cc2cc3c(cc2c2cc(OCc4ccccc4)ccc12)OCO3	2.32	6.85 µM	3.26	12.6			1.9 µM	3.62 µM	2.22 µM	4.6 µM	5.11 µM	19.9	2.96	8.81	2.63	5.99	3.3 µM	3.61 µM	1.78	1.84
COc1ccc(/C=C\c2cc(OC)c(OC)c(OC)c2)cc1NC(=O)/C=C/c1cc(OC)c(OC)c(OC)c1	1.95	8.03 µM	6.77	> 100	2.66 µM	8.96 µM	3.95 µM	> 100 µM							> 100	> 100				
O=C(CC1(O)C(=O)Nc2ccccc21)c1cccc(O)c1 (centres undefined)		> 100 µM		> 100		> 100 µM		> 100 µM		> 100 µM		> 100		> 100		> 100		> 100 µM		
C=C(C)[C@@H]1CC[C@]2(C(=O)O)CC[C@]3(C)[C@H](CC[C@@H]4[C@@]5(C)CCC(N)C(C)(C)[C@@H]5CC[C@]43C)[C@@H]12 (some centres undefined)			2.79	> 100	1.77 µM	3.31 µM	1.59 µM	3.02 µM	1.95 µM	3.69 µM	> 100 µM	> 100	1.39	2.72			3.32 µM		1.75	
CC(=O)[CH-]C(=O)c1ccccc1.CC(=O)[CH-]C(=O)c1ccccc1.Cl.[O-]CCc1ccccn1.[O-]CCc1ccccn1.[Ti+4]	21.2	93.5 µM	41.4	> 100			29.8 µM	88 µM	19.2 µM	38.9 µM	39.5 µM	> 100	23.9	89.2	28.7	93.3		> 100 µM		25.6

Structure (SMILES)	GI50 (HL-60(TB) leukemia) [µM]	TGI (HL-60(TB) leukemia)	GI50 (OVCAR-4 ovarian) [µM]	TGI (OVCAR-4 ovarian) [µM]	GI50 (RXF 393 renal)	TGI (RXF 393 renal)	GI50 (SF-539 CNS)	TGI (SF-539 CNS)	GI50 (SK-MEL-2 melanoma)	TGI (SK-MEL-2 melanoma)	GI50 (SK-OV-3 ovarian)	TGI (SK-OV-3 ovarian) [µM]	GI50 (SNB-75 CNS) [µM]	TGI (SNB-75 CNS) [µM]	GI50 (TK-10 renal) [µM]	TGI (TK-10 renal) [µM]	TGI (MDA-MB-435)	TGI (SF-295 CNS)	GI50 (MDA-MB-435) [µM]	GI50 (SF-295 CNS) [µM]
C(=C\c1ccc2ccccc2c1Nc1ccccc1)/c1ccccc1		> 100 µM		23.2		37.6 µM		> 100 µM		> 100 µM		> 83		39.9		> 100		> 100 µM		
ClC/C=C/CSc1ncnc2nc[nH]c12			> 100	> 100	> 100 µM	> 100 µM	> 100 µM	> 100 µM			> 100 µM	> 100	> 100	> 100			> 100 µM	> 100 µM	> 100	> 100
O=C1N(c2ccc(Cl)cc2)C(=O)C2(SC=NN2Cc2ccccc2)N1c1ccc(Cl)cc1 (centres undefined)		> 100 µM		> 100		> 100 µM		> 100 µM				> 100		> 100		> 100				
CN(C)NC(=O)NC12CC3CC(CC(C3)C1)C2		> 100 µM		> 100		> 10 µM		> 100 µM		> 100 µM		> 100		> 100		> 10		> 100 µM		
Nc1nc(N)c(CCCCc2ccc([N+](=O)[O-])cc2)c(N)n1		> 100 µM		> 100		> 100 µM		> 100 µM		> 100 µM		> 100		> 100		> 100		> 100 µM		
COc1ccccc1NC(=O)c1sc2ncn(CCOc3ccccc3)c(=O)c2c1C	1.93	> 50 µM					2.77 µM	12.2 µM	3.37 µM	> 50 µM	> 50 µM	> 50			> 50	> 50		> 50 µM		1.69
COc1cc2c3c(c4ccc(O)cc4c2cc1OC)[C@@H](O)[C@@H]1CCCN1C3		4.74 µM		0.00239		0.0029 µM		< 0.0114 µM		0.00429 µM						0.00649	0.0072 µM	0.0655 µM		
N#Cc1sc2nc3c(c(-c4ccccc4)c2c1N)CCCC3		> 100 µM		> 100		> 100 µM		56.2 µM		> 100 µM		> 100				> 100		43.6 µM		
CCNC(=O)O/N=C1\CCC2[C@@H]3CC=C4C[C@@H](OC(=O)NCC)CC[C@]4(C)C3CC[C@]12C (some centres undefined)				5.19		11.6 µM		> 100 µM		9.87 µM		19.7		7.35		5.9		11.4 µM		
Nc1ncc(CN2CCCC2)c(-c2ccccc2O)n1	> 750			> 750		> 750 µM		> 750 µM				> 750		> 750		> 750		> 750 µM		
CC(=O)O[C@H]1CSC[C@@H](OC(C)=O)C1[N+](=O)[O-] (some centres undefined)		54.6 µM		> 100		36.1 µM		> 100 µM		66.9 µM		> 100		> 100		> 100		> 100 µM		
NC1(C(=O)O)CCC(C(=O)O)CC1 (centres undefined)		> 100 µM		> 100		> 100 µM		> 100 µM		> 100 µM		> 100		> 100		> 100		> 100 µM		
CSCSCC(CO)NC(=O)/C=C/c1c(C)[nH]c(=O)[nH]c1=O (centres undefined)		> 100 µM		> 100		> 100 µM		> 100 µM		> 100 µM				> 100		> 100		> 100 µM		
CC(=O)OC1(C(C)=O)CC2(c3ccccc3)OC1(c1ccccc1)c1ccccc12 (centres undefined)						60.2 µM		> 100 µM		83.2 µM		> 100		> 100		> 100		> 100 µM		
CC1=C(C(=S)Nc2ccc(Cl)c(C(=O)OC(C)C)c2)SCCO1		37.2 µM		43.5				38.4 µM		48.9 µM		54.8		43.7		54.3	42.7 µM	36.4 µM		
O=C(CC1(O)C(=O)Nc2ccc(Cl)cc21)c1ccc(C(=O)NCC2CCC3(CC2)OOC2(CCCCC2)OO3)cc1 (centres undefined)			2.54	18.3	2.8 µM	9.16 µM	1.63 µM	3.16 µM	2.16 µM	4.78 µM	2.6 µM	8.01	1.34	3.25	1.78	3.28		9.31 µM		2.15
CCOC(=O)C(Oc1ccc(OC)c2c1C(=O)CCC2)c1ccccc1 (centres undefined)		> 100 µM		> 100				> 100 µM		> 100 µM		> 100				> 100		> 100 µM		
CN(C(=O)C12C3C4C1C1C2C3C41C#N)C(C)(C)C (centres undefined)		> 100 µM		> 100				> 100 µM		> 100 µM		> 100		> 100		> 100		> 100 µM		
COc1cc2c(c3oc4c(O)cccc4c(=O)c13)CC(C(C)(O)CCl)O2 (centres undefined)				8.18		2.43 µM		2.2 µM		3.38 µM		17.9		8.18		41.8	1.55 µM	24.1 µM		
CC1=C(\C=C/C(C)=C/C=C/C(C)=C/C=C/C=C(C)\C=C\C=C(C)/C=C/C2=C(C)CCCC2(C)C)C(C)(C)CCC1				> 100		> 100 µM				> 100 µM		> 100		> 100		> 100	> 100 µM	> 100 µM		
COc1cc([C@H]2OC[C@@H]3C(c4cc(OC)c5c(c4)OCO5)OC[C@H]23)cc(OC)c1OC (some centres undefined)				> 100				> 100 µM		> 100 µM		> 100		> 100		> 100	> 100 µM	> 100 µM		
